Assay [1] has as its target T1, Porcine brain tubulin protein (Sus scrofa, UniProt P02554).
T1 construct: Porcine brain tubulin protein was dissolved in EM buffer; from tissue; host or cells: porcine brain
Description: In vitro tubulin polymerization assay. It is filed as biochemical. The protocol:
The ability of compound 3g to disrupt microtubule dynamics was assessed using an in vitro tubulin polymerization assay.
Porcine brain tubulin protein was dissolved in EM buffer containing 5% glycerol (80 mM PIPES, 2 mM GTP, 2 mM MgCl2, and 0.5 mM EGTA, pH 6.9). Compounds were diluted in EM buffer to final concentrations of 50, 25, 10, 5, and 2.5 μM and added to a pre-warmed 384-well plate, followed by pre-incubation at 37 °C. Subsequently, 14 μL of the tubulin-GTP mixture was added to each well containing the test compounds. Tubulin polymerization was monitored by measuring absorbance at 340 nm every minute for 60 min. […] Each assay was performed in triplicate.
Absorbance at 340 nm was determined every 1 min.

Assay [2] deals with MCF-7 cells. Kind of assay: Wound healing assay. The class given is cell-based, human. Conditions: 0.1, 1, 10 μM, 24 h, vs untreated control. The procedure:
The impact of compound 3g on MCF-7 cell migration was assessed using wound healing and transwell migration assays.
MCF-7 cells were seeded and incubated in a 6-well plate overnight. Scratches were made in confluent monolayers with a 200 μL pipette tip. Then, wounds were washed twice with media to remove debris and uprooted cells. Cells were treated with various concentrations (0, 0.1, 1, and 10 μM) of compound 3g. Images were obtained using phase contrast microscopy at 0 and 24 h. The migration distance of cells in the wound area was quantified using ImageJ.
Figure 4 Effect of compound 3g on the migration of MCF-7 breast cancer cells. (A) 3g inhibited the migration of MCF-7 cells at different concentrations in a dose-dependent manner. Representative images of wound healing were captured by an inverted microscope at 0 h and 24 h treatment. Scale bar = 200 μm. (B) Wound closure percentages in the different groups after treatment with 3g for 24 h. (C) Results of the transwell migration assay. Representative images of the stained migrated cells after incubation with 3g at different concentrations for 48 h. Scale bar = 200 μm. Data are presented as the mean ± SD of three independent experiments. Bar values represent the standard deviation SD. ** p < 0.01, and *** p < 0.001 (one-way ANOVA).

For the next assay, the system named is A375 cells. Description: CCK-8 antiproliferative assay, A375. The class given is cell-based. Conditions: Homo sapiens, A-375; cell viability (CCK-8), 48 h. The protocol:
(§1) To evaluate the anticancer potential of the synthesized compounds, a panel of six human and murine cancer cell lines representing different tissue origins was selected, including MCF-7 (human breast adenocarcinoma), MDA-MB-231 (human triple-negative breast cancer), A549 (human non-small cell lung cancer), HeLa (human cervical cancer), A375 (human melanoma), and B16-F10 (murine melanoma) (Table 2). […] DMSO was used as the vehicle control, and all experiments were performed in triplicate to ensure reproducibility.
(§2) Human breast cancer cells (MCF-7), human lung cancer cells (A549), human cervical cancer cells (HeLa), human triple-negative breast cancer cells (MDA-MB-231), and human malignant melanoma cells (A375) were cultured in DMEM. Mouse melanoma cells (B16F10) were maintained in RPMI-1640 medium. All media were supplemented with 10% fetal bovine serum and 1% penicillin-streptomycin (Life Technologies, Carlsbad, CA, USA) and maintained at 37 °C in a humidified atmosphere with 5% CO2.
(§3) The cytotoxicity of the test compounds was evaluated against MCF-7, A549, HeLa, MDA-MB-231, A375, and B16F10 using the CCK-8 assay. Cells were seeded into 96-well plates at a density of 5000 cells/well. After removing the medium, 100 μL of medium with 0.1% DMSO containing test compounds at different concentrations was added to each well and incubated at 37 °C for another 48 h. The CCK-8 solution was added and incubated for another 1 h, and then, the absorbance was detected with a microplate reader at a wavelength of 450 nm. The IC50 values were calculated by nonlinear regression analysis using GraphPad Prism 8.0.2. All the experiments were repeated at least three times.
On the technique in general: Formazan colour is commonly taken as a measure of viable cells.

Assay [3] relates to MCF-7 cells. Description: Colony formation assay. It is filed as cell-based, human. The settings on record: 24 h treatment. The procedure:
To assess the long-term antiproliferative potential of compound 3g, a colony formation assay was conducted using MCF-7 breast cancer cells.
MCF-7 cells (1000 cells/well) were counted and seeded in 6-well plates. After being cultured for 24 h at 37 °C, the medium was replaced with medium added with compound 3g at the indicated concentration. After 24 h of treatment, the medium was changed to normal. After being cultured for another 10–14 days, the colonies were fixed with 4% paraformaldehyde for 30 min and stained with 0.1% crystal violet for 15 min. Following washing with PBS, the colonies were then photographed and quantified using Image J 1.54g.
Figure 3 Inhibition of MCF-7 Cell Colony Formation by Compound 3g. (A) 3g inhibited the colony formation of MCF-7 cells at different concentrations in a dose-dependent manner. (B) Colony units in the different groups after treatment with 3g. Number of colonies was counted after treating MCF-7 cells with the indicated concentration of compound 3g for 24 h (n = 3, * p < 0.05, ** p < 0.01 vs. DMSO control, one-way ANOVA).

A further assay relates to A549 cells. Kind of assay: CCK-8 antiproliferative assay, A549. It is filed as cell-based. Conditions: Homo sapiens, cell viability (CCK-8), 48 h. The protocol: as §1, §2, §3
The next assay relates to MDA-MB-231 cells. Description: CCK-8 antiproliferative assay, MDA-MB-231. It is filed as cell-based. The settings on record: Homo sapiens, cell viability (CCK-8), 48 h. The procedure: as §1, §2, §3

Molecules are shown by their SMILES.

A word on the IC50: it is the point on the concentration scale where inhibition reaches its midpoint.

T1 sequence (P02554 whole entry): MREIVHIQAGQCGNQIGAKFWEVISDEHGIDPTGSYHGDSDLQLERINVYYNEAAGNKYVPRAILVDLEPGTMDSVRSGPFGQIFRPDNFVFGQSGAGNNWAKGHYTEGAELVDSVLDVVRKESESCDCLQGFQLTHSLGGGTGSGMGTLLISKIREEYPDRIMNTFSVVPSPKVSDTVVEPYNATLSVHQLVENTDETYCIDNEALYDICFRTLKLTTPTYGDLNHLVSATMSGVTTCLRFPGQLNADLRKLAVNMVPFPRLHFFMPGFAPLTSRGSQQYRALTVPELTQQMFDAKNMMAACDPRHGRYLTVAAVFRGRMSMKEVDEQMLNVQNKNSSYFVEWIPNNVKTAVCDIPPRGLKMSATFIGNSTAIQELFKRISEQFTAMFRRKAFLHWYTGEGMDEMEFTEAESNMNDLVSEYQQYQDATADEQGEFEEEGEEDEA
T1 sequence (P02550 whole entry partner): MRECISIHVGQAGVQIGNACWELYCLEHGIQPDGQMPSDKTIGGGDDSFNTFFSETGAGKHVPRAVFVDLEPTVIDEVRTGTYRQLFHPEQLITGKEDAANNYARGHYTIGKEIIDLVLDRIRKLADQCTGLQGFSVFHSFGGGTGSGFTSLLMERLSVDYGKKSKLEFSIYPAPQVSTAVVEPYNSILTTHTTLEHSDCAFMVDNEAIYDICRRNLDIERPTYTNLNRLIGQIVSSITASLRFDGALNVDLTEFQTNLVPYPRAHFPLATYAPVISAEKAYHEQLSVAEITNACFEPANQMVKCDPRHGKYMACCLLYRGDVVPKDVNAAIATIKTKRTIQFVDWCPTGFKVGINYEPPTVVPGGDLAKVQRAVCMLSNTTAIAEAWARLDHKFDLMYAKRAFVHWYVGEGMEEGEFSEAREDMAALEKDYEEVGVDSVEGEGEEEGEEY

Turning to `COc1cc(-n2ccc3ccc(-c4ccc(C)c(C#N)c4)cc32)cc(OC)c1OC` [3g, 2-methyl-5-(1-(3,4,5-trimethoxyphenyl)-1H-indol-6-yl)benzonitrile], the “effect on tubulin assembly” value in assay [1] (50 μM) is on record as “markedly suppressed tubulin assembly”. Further, the “effect on tubulin polymerization” value in assay [1] (2.5–50 μM, absorbance at 340 nm) was “inhibited tubulin polymerization in a concentration-dependent manner”. Also, the wound closure entry in the assay on MCF-7 cells [2] is reported as “markedly inhibited”. The results for the IC50 in the assay on A375 cells, with A549 cells and with MDA-MB-231 cells were 570 ± 10 nM, 6300 ± 300 nM and 1610 ± 4 nM, respectively. Further, in the assay with MCF-7 cells [3] (0.1 μM), the “clonogenic survival / colony formation” value was “moderate reduction”. Also, the values for the colony formation entry with MCF-7 cells [3] (1 μM) and in the assay on MCF-7 cells [3] (10 μM) were “progressively greater inhibition” and “near-complete suppression”, respectively.

The values above are taken from PMC12693167, “Design, Synthesis and Anticancer Activity of 6-Substituted-1-(3,4,5-trimethoxyphenyl)-1H-indole Against Tubulin Polymerisation” (Molecules, 2025).
